These are literature values, as cited in patent US9084671B2, “Methods of forming a micronized peptide coated stent” (ABBOTT CARDIOVASCULAR SYSTEMS INC., priority 2002, dated 2015).

For the series the following is noted: stated as a property of the highly cationic guanidinium peptide; no method given.

For heptaarginine [heptamer of L-arginine], the pKa (usually the pH at which an ionisable group is half protonated) is reported as 13.2.
